Results published in patent US20160331754A1, “THERAPIES FOR TREATING CANCERS” (GILEAD SCIENCES, INC., priority 2014, published 2016).
Several values for one entry are separate records, joined by “and”; a condition that tells them apart may be missing. Identical values can stand only once.

Columns and labels:
p-AKT Ser473 [1] = test: Western blot, TPO-activated AKT phosphorylation in UT-7/TPO cells; format: cell-based; settings: then TPO
Experimental: (§1) In addition, Compound B was examined for the effects on the PI3K signaling pathway by determining the levels of AKT and S6 phosphorylation with or without TPO activation. Two cell lines, BaF3/MPL and UT-7/TPO sensitive or responsive to TPO activation were used. The cells were starved (i.e. growing on medium having less FBS) in […] FBS/RPMI for two hours before treated with 0.1, 1.0, or 2.0 μM of Compound B or vehicle (0.1% DMSO in RPMI) for 2 hours at 37° C. To examine the TPO-activated phosphorylation, the cells were then treated or activated with 50 ng/mL of human recombinant TPO (Peprotech) for 10 minutes at 37° C. The TPO activation or treatment may reflect the conditions in diseased cells as the PI3K pathway is activated by TPO in myelofibrosis. After treating with compound and/or TPO, the cells were collected, lysed by lysis buffer (Cell Signaling), separated by SDS-PAGE, and analyzed by the Western blot using antibodies specific to p-AKT Ser473 or pS6 Ser235/236 (Cell Signaling). The phosphorylation levels in treated cells were calculated and compared to those of untreated cells (i.e. vehicle as negative control).

WIL2-S = test: ADCC LDH release assay, purified NK cells against WIL2-S target cells; format: cell-based, human; settings: for Percentage of ADCC, 5 nM Compound B / Percentage of ADCC, 50 nM Compound B / Percentage of ADCC, 500 nM Compound B: antibody concentration 10 μg/mL; for Percentage of maximum ADCC, obinutuzumab: obinutuzumab 10 μg/mL; for Percentage of maximum ADCC, rituximab: rituximab 10 μg/mL
p-AKT Ser473 [2] = test: Western blot, TPO-activated AKT phosphorylation in BaF3/MPL cells; format: cell-based; settings: then TPO 50 ng/mL 10 min
Experimental: as §1

Ri-1 DLBCL cells = test: Cell death assay (Annexin V/7AAD) in Ri-1 DLBCL cells; format: cell-based; settings: 3 days
Experimental: Further, whole blood (WB) autologous B-cell depletion and cell-death induction assays were conducted as described in Mossner et al., Blood 115:4393-402, 2010. For cell death assay: Ri-1 DLBCL cells were seeded at 15,000 cells/well in 96-well plates. Cells were preincubated with Compound B or DMSO for 1 hour before the addition of antibody. Plates were incubated at 37° C. in a humidified CO2 chamber for 3 days. Cells were washed once with PBS and treated with Accutase for 15 minutes before being stained with Guava Nexin® reagent and analyzed on the Guava EasyCyte flow cytometer (Merck Millipore).
After 3 days of incubation, cell death was assessed by Annexin V/7AAD staining.

[3] = Plasma concentration in patient at clinical dose; format: in vivo, human; settings: clinical dose 150 mg, twice a day
[4] = Compound B 0.98 nM, FcγRIIIa 158F/F
[5] = Compound B 0.98 nM, FcγRIIIa 158F/V
[6] = Compound B 0.98 nM, FcγRIIIa 158V/V
[7] = Compound B 1.95 nM, FcγRIIIa 158F/F
[8] = Compound B 1.95 nM, FcγRIIIa 158F/V
[9] = Compound B 1.95 nM, FcγRIIIa 158V/V
[10] = Compound B 3.91 nM, FcγRIIIa 158F/F
[11] = Compound B 3.91 nM, FcγRIIIa 158F/V
[12] = Compound B 3.91 nM, FcγRIIIa 158V/V
[13] = Compound B 7.81 nM, FcγRIIIa 158F/F
[14] = Compound B 7.81 nM, FcγRIIIa 158F/V
[15] = Compound B 7.81 nM, FcγRIIIa 158V/V
[16] = Compound B 15.63 nM, FcγRIIIa 158F/V
[17] = Compound B 15.63 nM, FcγRIIIa 158V/V
[18] = Compound B 31.25 nM, FcγRIIIa 158F/V
[19] = Compound B 31.25 nM, FcγRIIIa 158V/V
[20] = Compound B 62.5 nM, FcγRIIIa 158F/F
[21] = Compound B 62.5 nM, FcγRIIIa 158F/V
[22] = Compound B 62.5 nM, FcγRIIIa 158V/V
[23] = Compound B 125 nM, FcγRIIIa 158F/F
[24] = Compound B 125 nM, FcγRIIIa 158F/V
[25] = Compound B 125 nM, FcγRIIIa 158V/V
[26] = Compound B 250 nM, FcγRIIIa 158F/F
[27] = Compound B 250 nM, FcγRIIIa 158F/V
[28] = Compound B 250 nM, FcγRIIIa 158V/V
[29] = Compound B 500 nM, FcγRIIIa 158F/F
[30] = Compound B 500 nM, FcγRIIIa 158F/V
[31] = Compound B 500 nM, FcγRIIIa 158V/V
[32] = Compound B 1000 nM, FcγRIIIa 158F/F, n=2
[33] = Compound B 1000 nM, FcγRIIIa 158F/V, n=2

## CC[C@H](Nc1ncnc2[nH]cnc12)c1nc2cccc(F)c2c(=O)n1-c1ccccc1 [Compound B, (S)-2-(1-((9H-purin-6-yl)amino)propyl)-5-fluoro-3-phenylquinazolin-4(3H)-one]
p-AKT Ser473 [1]; 0.1 μM 2 h
  reduced p-AKT levels vs vehicle: 11%
p-AKT Ser473 [1]; 1.0 μM 2 h
  reduced p-AKT levels vs vehicle: 44%
p-AKT Ser473 [1]; 2.0 μM 2 h
  reduced p-AKT levels vs vehicle: 55%
WIL2-S; E:T 3:1
  Percentage of ADCC, 5 nM Compound B: 58% and 56% and 53% and 49% and 46% and 44% and 39%
  Percentage of ADCC, 50 nM Compound B: 54% and 58% and 50% and 39% and 37% and 44% and 42%
  Percentage of ADCC, 500 nM Compound B: 50% and 53% and 36% and 34% and 39% and 35% and 38%
WIL2-S; E:T 10:1
  Percentage of ADCC, 5 nM Compound B: 72% and 75% and 73% and 79% and 74%
  Percentage of ADCC, 50 nM Compound B: 72% and 74% and 69% and 77% and 76% and 73%
  Percentage of ADCC, 500 nM Compound B: 67% and 73% and 71% and 66% and 70%
WIL2-S; E:T 30:1
  Percentage of ADCC, 5 nM Compound B: 81% and 82% and 79% and 76% and 80% and 77% and 85% and 84%
  Percentage of ADCC, 50 nM Compound B: 76% and 81% and 80% and 79% and 75% and 85% and 84%
  Percentage of ADCC, 500 nM Compound B: 76% and 79% and 77% and 72% and 75% and 81% and 82%
WIL2-S; [4]
  Percentage of maximum ADCC, obinutuzumab: 91% and 104%
  Percentage of maximum ADCC, rituximab: 104% and 107%
WIL2-S; [5]
  Percentage of maximum ADCC, obinutuzumab: 103% and 104%
  Percentage of maximum ADCC, rituximab: 100% and 105%
WIL2-S; [6]
  Percentage of maximum ADCC, obinutuzumab: 101% and 99%
  Percentage of maximum ADCC, rituximab: 102% and 99%
WIL2-S; [7]
  Percentage of maximum ADCC, obinutuzumab: 89% and 106%
  Percentage of maximum ADCC, rituximab: 103% and 111%
WIL2-S; [8]
  Percentage of maximum ADCC, obinutuzumab: 104% and 112%
  Percentage of maximum ADCC, rituximab: 105% and 111%
WIL2-S; [9]
  Percentage of maximum ADCC, obinutuzumab: 107% and 100%
  Percentage of maximum ADCC, rituximab: 105% and 104%
WIL2-S; [10]
  Percentage of maximum ADCC, obinutuzumab: 84% and 108%
  Percentage of maximum ADCC, rituximab: 97% and 109%
WIL2-S; [11]
  Percentage of maximum ADCC, obinutuzumab: 105% and 110%
  Percentage of maximum ADCC, rituximab: 102% and 110%
WIL2-S; [12]
  Percentage of maximum ADCC, obinutuzumab: 103% and 91%
  Percentage of maximum ADCC, rituximab: 102% and 105%
WIL2-S; [13]
  Percentage of maximum ADCC, obinutuzumab: 89% and 107%
  Percentage of maximum ADCC, rituximab: 91% and 108%
WIL2-S; [14]
  Percentage of maximum ADCC, obinutuzumab: 109% and 107%
  Percentage of maximum ADCC, rituximab: 104% and 110%
WIL2-S; [15]
  Percentage of maximum ADCC, obinutuzumab: 94% and 90%
  Percentage of maximum ADCC, rituximab: 100%
WIL2-S; Compound B 15.63 nM, FcγRIIIa 158F/F
  Percentage of maximum ADCC, obinutuzumab: 80% and 108%
WIL2-S; [16]
  Percentage of maximum ADCC, obinutuzumab: 106% and 109%
  Percentage of maximum ADCC, rituximab: 100% and 108%
WIL2-S; [17]
  Percentage of maximum ADCC, obinutuzumab: 93% and 90%
  Percentage of maximum ADCC, rituximab: 98% and 101%
WIL2-S; Compound B 31.25 nM, FcγRIIIa 158F/F
  Percentage of maximum ADCC, obinutuzumab: 85% and 107%
WIL2-S; [18]
  Percentage of maximum ADCC, obinutuzumab: 107%
  Percentage of maximum ADCC, rituximab: 100% and 104%
WIL2-S; [19]
  Percentage of maximum ADCC, obinutuzumab: 95% and 82%
  Percentage of maximum ADCC, rituximab: 94%
WIL2-S; [20]
  Percentage of maximum ADCC, obinutuzumab: 88% and 108%
  Percentage of maximum ADCC, rituximab: 88% and 108%
WIL2-S; [21]
  Percentage of maximum ADCC, obinutuzumab: 112% and 103%
  Percentage of maximum ADCC, rituximab: 101% and 107%
WIL2-S; [22]
  Percentage of maximum ADCC, obinutuzumab: 98% and 78%
  Percentage of maximum ADCC, rituximab: 96% and 99%
WIL2-S; [23]
  Percentage of maximum ADCC, obinutuzumab: 87% and 110%
  Percentage of maximum ADCC, rituximab: 87% and 108%
WIL2-S; [24]
  Percentage of maximum ADCC, obinutuzumab: 111% and 105%
  Percentage of maximum ADCC, rituximab: 105% and 102%
WIL2-S; [25]
  Percentage of maximum ADCC, obinutuzumab: 94% and 84%
  Percentage of maximum ADCC, rituximab: 95% and 98%
WIL2-S; [26]
  Percentage of maximum ADCC, obinutuzumab: 91% and 109%
  Percentage of maximum ADCC, rituximab: 87% and 109%
WIL2-S; [27]
  Percentage of maximum ADCC, obinutuzumab: 106% and 102%
  Percentage of maximum ADCC, rituximab: 98% and 101%
WIL2-S; [28]
  Percentage of maximum ADCC, obinutuzumab: 99% and 89%
  Percentage of maximum ADCC, rituximab: 95% and 94%
WIL2-S; [29]
  Percentage of maximum ADCC, obinutuzumab: 83% and 104%
  Percentage of maximum ADCC, rituximab: 84% and 105%
WIL2-S; [30]
  Percentage of maximum ADCC, obinutuzumab: 106% and 94%
  Percentage of maximum ADCC, rituximab: 95% and 99%
WIL2-S; [31]
  Percentage of maximum ADCC, obinutuzumab: 92% and 79%
  Percentage of maximum ADCC, rituximab: 91% and 96%
WIL2-S; [32]
  Percentage of maximum ADCC, obinutuzumab: 79% and 103%
  Percentage of maximum ADCC, rituximab: 80% and 100%
WIL2-S; [33]
  Percentage of maximum ADCC, obinutuzumab: 105% and 93%
  Percentage of maximum ADCC, rituximab: 95% and 88%
WIL2-S; Compound B 1000 nM, FcγRIIIa 158V/V, n=2
  Percentage of maximum ADCC, rituximab: 87% and 84%
WIL2-S; WIL2-S, E:T=10:1, 4 h, n=9
  effect on obinutuzumab-mediated ADCC: did not affect
WIL2-S; varying E:T ratios, antibody 10 μg/mL, n=3
  effect on NK-mediated ADCC: did not affect
p-AKT Ser473 [2]; 0.1 μM 2 h
  reduced p-AKT levels vs vehicle: 51%
p-AKT Ser473 [2]; 1.0 μM 2 h
  reduced p-AKT levels vs vehicle: 64%
p-AKT Ser473 [2]; 2.0 μM 2 h
  reduced p-AKT levels vs vehicle: 67%
Ri-1 DLBCL cells; 100 nM Compound B alone
  Percentage of total Annexin V+ cells: 28% and 27%
Ri-1 DLBCL cells; 300 nM Compound B alone
  Percentage of total Annexin V+ cells: 31% and 33%
Ri-1 DLBCL cells; 600 nM Compound B alone
  Percentage of total Annexin V+ cells: 35% and 37%
[3]
  maximal average plasma concentration (Cmax), adjusted for protein binding: 256 nM
